In US9737545B2 (MERCK SHARP & DOHME CORP., priority 2013, dated 2017):

These compounds were tested against T1, wildtype HIV-1 protease (Human immunodeficiency virus type 1 group M subtype B, UniProt P04585) (assay: Assay for Inhibition of Microbial Expressed HIV Protease (Pepcleav)).
T1 construct: preincubated with the HIV-1 protease (wild type) enzyme in assay buffer; made in house; host or cells: Escherichia coli
Assay type: biochemical
Procedure: Assay for Inhibition of Microbial Expressed HIV Protease (“Pepcleav”)
Studies of the inhibition of the wildtype HIV-1 protease (which was expressed in Escherichia coli) were carried out with a peptide substrate [Val-Ser-Gln-Asn-(βnaphthyl)Ala-Pro-Ile-Val (SEQ ID NO: 1)]. The inhibitor was first preincubated with the HIV-1 protease (wild type) enzyme in assay buffer (50 mM sodium acetate, pH 5.5, 100 mM NaCl, and 0.1% BSA) for 30 minutes at room temperature. Substrate was added to 400 micromolar in a total volume of 20 microliters containing 20 picomolar HIV-1 protease (final) and the reaction was incubated for 1 hour at 30° C. The reaction was quenched with the addition of formic acid and indinavir to 0.012% and 150 nM final concentrations, respectively. The product formation was determined after separation of product and substrate on a Zorbax Eclipse XDB-C18 column connected to an API 4000 mass spectrometer (Applied Biosystems) with multiple reaction monitoring (transitions were 644.5/428.9 and 615.4/422.2 (M1/M3) for product and indinavir respectively). The extent of inhibition of the reaction was determined from the peak area of the products. Analysis of the products, independently synthesized, provided quantitation standards and confirmation of the product composition.
Compound COC(=O)N[C@H](C(=O)Nc1ccccc1CC[C@@H]1CN[C@H](c2nc3ccc(Br)cc3[nH]2)CO1)C(c1ccccc1)c1ccccc1 [Example 11, methyl N-[(1S)-1-benzhydryl-2-[[2-[2-[(2R,5R)-5-(6-bromo-1H-benzimidazol-2-yl)morpholin-2-yl]ethyl]phenyl]amino]-2-oxo-ethyl]carbamate] has an IC50 of 0.411 nM. COC(=O)N[C@H](C(=O)Nc1ccccc1CC[C@@H]1CN[C@H](c2nc3cc(Cl)c(Cl)cc3[nH]2)CO1)C(c1ccccc1)c1ccccc1 [Example 12] was tested, and the IC50 was 0.706 nM. For COC(=O)N[C@H](C(=O)Nc1ccccc1CC[C@@H]1CN[C@H](c2nc3cccc(Cl)c3[nH]2)CO1)C(c1ccccc1)c1ccccc1 [Example 13, methyl N-[(1S)-1-benzhydryl-2-[[2-[2-[(2R,5R)-5-(7-chloro-1H-benzimidazol-2-yl)morpholin-2-yl]ethyl]phenyl]amino]-2-oxo-ethyl]carbamate], the IC50 was 0.137 nM. COC(=O)N[C@H](C(=O)Nc1ccccc1CC[C@@H]1CN[C@H](c2nc3cccc(Br)c3[nH]2)CO1)C(c1ccccc1)c1ccccc1 [Example 14, methyl N-[(1S)-1-benzhydryl-2-[[2-[2-[(2R,5R)-5-(7-bromo-1H-benzimidazol-2-yl)morpholin-2-yl]ethyl]phenyl]amino]-2-oxo-ethyl]carbamate] was tested, and the IC50 was 0.592 nM. With COC(=O)N[C@H](C(=O)Nc1ccccc1CC[C@@H]1CN[C@H](c2nc3c(O)cccc3[nH]2)CO1)C(c1ccccc1)c1ccccc1 [Example 15, methyl N-[(1S)-1-benzhydryl-2-[[2-[2-[(2R,5R)-5-(4-hydroxy-1H-benzimidazol-2-yl)morpholin-2-yl]ethyl]phenyl]amino]-2-oxo-ethyl]carbamate] the IC50 was 0.0559 nM. COC(=O)N[C@H](C(=O)Nc1ccccc1CC[C@@H]1CN[C@H](c2nc3cc(F)c(F)cc3[nH]2)CO1)C(c1ccccc1)c1ccccc1 [Example 16, methyl N-[(1S)-1-benzhydryl-2-[[2-[2-[(2R,5R)-5-(5,6-difluoro-1H-benzimidazol-2-yl)morpholin-2-yl]ethyl]phenyl]amino]-2-oxo-ethyl]carbamate] showed an IC50 of 0.0246 nM. For COC(=O)N[C@H](C(=O)Nc1ccccc1CC[C@@H]1CN[C@H](c2nc3c(F)c(F)c(F)cc3[nH]2)CO1)C(c1ccccc1)c1ccccc1 [Example 17, methyl N-[(1S)-1-benzhydryl-2-oxo-2-[[2-[2-[(2R,5R)-5-(4,5,6-trifluoro-1H-benzimidazol-2-yl)morpholin-2-yl]ethyl]phenyl]amino]ethyl]carbamate], the IC50 was 0.0747 nM. COC(=O)N[C@H](C(=O)Nc1ccccc1CC[C@@H]1CN[C@H](c2nc3ccc(F)cc3[nH]2)CO1)C(c1ccccc1)c1ccccc1 [Example 18, methyl N-[(1S)-1-benzhydryl-2-[[2-[2-[(2R,5R)-5-(6-fluoro-1H-benzimidazol-2-yl)morpholin-2-yl]ethyl]phenyl]amino]-2-oxo-ethyl]carbamate] was tested, and the IC50 was 0.125 nM. COC(=O)N[C@H](C(=O)Nc1ccccc1CC[C@@H]1CN[C@H](c2nc3c(Br)cc(C)cc3[nH]2)CO1)C(c1ccccc1)c1ccccc1 [Example 19, methyl N-[(1S)-1-benzhydryl-2-[[2-[2-[(2R,5R)-5-(4-bromo-6-methyl-1H-benzimidazol-2-yl)morpholin-2-yl]ethyl]phenyl]amino]-2-oxo-ethyl]carbamate] was tested, and the IC50 was 0.573 nM. COC(=O)N[C@H](C(=O)Nc1ccccc1CC[C@@H]1CN[C@H](c2nc3cc(F)c(Br)cc3[nH]2)CO1)C(c1ccccc1)c1ccccc1 [Example 20, methyl N-[(1S)-1-benzhydryl-2-[[2-[2-[(2R,5R)-5-(6-bromo-5-fluoro-1H-benzimidazol-2-yl)morpholin-4-ium-2-yl]ethyl]phenyl]amino]-2-oxo-ethyl]carbamate] was tested, and the IC50 was 0.525 nM. COC(=O)N[C@H](C(=O)Nc1ccccc1CC[C@@H]1CN[C@H](c2nc3nccnc3[nH]2)CO1)C(c1ccccc1)c1ccccc1 [Example 21, methyl N-[(1S)-1-benzhydryl-2-[[2-[2-[(2R,5R)-5-(3H-imidazo[4,5-b]pyrazin-2-yl)morpholin-2-yl]ethyl]phenyl]amino]-2-oxo-ethyl]carbamate] was tested, and the IC50 was 1.68 nM. Work on COC(=O)N[C@H](C(=O)Nc1ccccc1CC[C@@H]1CN[C@H](c2nc3cc(Cl)c(C)cc3[nH]2)CO1)C(c1ccccc1)c1ccccc1 [Example 22, methyl N-[(1S)-1-benzhydryl-2-[[2-[2-[(2R,5R)-5-(5-chloro-6-methyl-1H-benzimidazol-2-yl)morpholin-2-yl]ethyl]phenyl]amino]-2-oxo-ethyl]carbamate] yielded an IC50 of 1.93 nM. In the case of COC(=O)N[C@H](C(=O)Nc1ccccc1CC[C@@H]1CN[C@H](c2nc3c(C)ccnc3[nH]2)CO1)C(c1ccccc1)c1ccccc1 [Example 23, methyl N-[(1S)-1-benzhydryl-2-[[2-[2-[(2R,5R)-5-(7-methyl-3H-imidazo[4,5-b]pyridin-2-yl)morpholin-2-yl]ethyl]phenyl]amino]-2-oxo-ethyl]carbamate], the IC50 is reported as 3.13 nM. COC(=O)N[C@H](C(=O)Nc1ccccc1CC[C@@H]1CN[C@H](c2nc3c(C)cc(Cl)cc3[nH]2)CO1)C(c1ccccc1)c1ccccc1 [Example 24, methyl N-[(1S)-1-benzhydryl-2-[[2-[2-[(2R,5R)-5-(6-chloro-4-methyl-1H-benzimidazol-2-yl)morpholin-2-yl]ethyl]phenyl]amino]-2-oxo-ethyl]carbamate] gave an IC50 of 16.3 nM. COC(=O)N[C@H](C(=O)Nc1ccccc1CC[C@@H]1CN[C@H](c2nc3c(Cl)cc(C(F)(F)F)cc3[nH]2)CO1)C(c1ccccc1)c1ccccc1 [Example 26, methyl N-[(1S)-1-benzhydryl-2-[[2-[2-[(2R,5R)-5-[4-chloro-6-(trifluoromethyl)-1H-benzimidazol-2-yl]morpholin-2-yl]ethyl]phenyl]amino]-2-oxo-ethyl]carbamate] was tested, and the IC50 was 65.6 nM. Work on COC(=O)N[C@H](C(=O)Nc1ccccc1CC[C@@H]1CN[C@H](c2nc3cc(F)c(Cl)cc3[nH]2)CO1)C(c1ccccc1)c1ccccc1 [Example 27, N-(2-{2-[(2R,5R)-5-(6-chloro-5-fluoro-1H-benzimidazol-2-yl)morpholin-2-yl]ethyl}phenyl)-Na-(methoxycarbonyl)-b-phenyl-L-phenylalaninamide] yielded an IC50 of 0.658 nM. With COC(=O)N[C@H](C(=O)Nc1ccccc1CC[C@@H]1CN[C@H](c2nc3c(F)cccc3[nH]2)CO1)C(c1ccccc1)c1ccccc1 [Example 28, N-(2-{2-[(2R,5R)-5-(4-fluoro-1H-benzimidazol-2-yl)morpholin-2-yl]ethyl}phenyl)-Na-(methoxycarbonyl)-b-phenyl-L-phenylalaninamide] the IC50 was 0.122 nM. For COC(=O)N[C@H](C(=O)Nc1cccc(F)c1CC[C@@H]1CN[C@H](c2nc3cc(C)c(C)cc3[nH]2)CO1)C(c1ccccc1)c1ccccc1 [Example 29, N-(2-{2-[(2R,5R)-5-(5,6-dimethyl-1H-benzimidazol-2-yl)morpholin-2-yl]ethyl}-3-fluorophenyl)-Na-(methoxycarbonyl)-b-phenyl-L-phenylalaninamide], the IC50 was 0.0127 nM. With COC(=O)N[C@H](C(=O)Nc1cncc(F)c1CC[C@@H]1CN[C@H](c2nc3cc(C)c(C)cc3[nH]2)CO1)C(c1ccccc1)c1ccccc1 [Example 31, methyl N-[(1S)-1-benzhydryl-2-[[4-[2-[(2R,5R)-5-(5,6-dimethyl-1H-benzimidazol-2-yl)morpholin-2-yl]ethyl]-5-fluoro-3-pyridyl]amino]-2-oxo-ethyl]carbamate] the IC50 was 0.00965 nM.
